In patent US10233426B2, “Method for inducing cardiac differentiation of pluripotent stem cell with low-molecular compounds” (KYOTO UNIVERSITY, priority 2014, dated 2019):

Test system: monkey ES cell line transfected with an αMHC promoter-driven GFP gene
Assay: Chemical screening: GFP fluorometry for cardiac differentiation of monkey ES cells
Format: cell-based, cynomolgus monkey
Conditions: for intensity of GFP fluorescence relative to control culture (KY02111 only, assigned to one): GFP fluorometry day 9; for increase of cardiac differentiation: alone or in combination with KY02111 (10 μM in late phase)
Description: Pluripotent stem cells were cultured in culture media to which the test compounds were added in different concentrations (0.3 μM, 1 μM, 3 μM and 10 μM) in early phase and late phase of differentiation of the cells. Cells from the culture were subjected to GFP fluorometry in accordance with the cardiac differentiation protocol shown in FIG. 1a. Besides the test compounds, 10 μM KY02111 was included in the culture media for the late phase differentiation. The intensity of GFP fluorescence determined in the cells from the control culture, which was cultured with no test compound other than KY02111, was assigned to one.
The scheme of chemical screening is illustrated in FIG. 1a. Compounds were screened for the ability of increasing GFP fluorescence compared with the control (KY02111 alone) using a monkey ES cell line transfected with an αMHC promoter-driven GFP gene (Minami et al., Cell Reports 2, 1448-1460, 2012, which is incorporated herein by reference). The ES cell line was derived from a monkey ES cell line (cynomolgus monkey CMK6.4) by transfecting the cells with a vector which expresses green fluorescent protein (GFP) under control by a promoter of α-MHC gene (a marker of cardiac differentiation). The cells were plated at 4.0×10^5 cells per well in 6 well plates (Asahi Glass/5816-006: Ezview culture plates) and cultured for nine days in an IMDM-based medium for cardiac differentiation (200 ml IMDM medium (Sigma 13390), with 50 ml calf serum (GIBCO 10099-141), 2.5 ml MEM non-essential amino acid solution (Sigma M7145), 2.5 ml penicillin-streptomycin ([…]), 2.5 ml 200 mM L-glutamine, 2 ul 2-mercaptoethanol (Sigma M7522), and 255 ul 5N NaOH). Each test compound was added to the medium at different concentrations in the early phase (day 0 to day 3) and the late phase (day 4 to day 7) of cardiac differentiation. Cells obtained from the culture on day 9 were subjected to GFP fluorometry with a Metamorph imaging system. […]

[1] = test compound 0.3 μM in Early phase (day 0 to day 3), 10 μM KY02111 in late phase
[2] = test compound 0.3 μM in Late phase (day 4 to day 7) with 10 μM KY02111
[3] = test compound 1 μM in Early phase (day 0 to day 3), 10 μM KY02111 in late phase
[4] = test compound 1 μM in Late phase (day 4 to day 7) with 10 μM KY02111
[5] = test compound 3 μM in Early phase (day 0 to day 3), 10 μM KY02111 in late phase
[6] = test compound 3 μM in Late phase (day 4 to day 7) with 10 μM KY02111
[7] = test compound 10 μM in Early phase (day 0 to day 3), 10 μM KY02111 in late phase
[8] = test compound 10 μM in Late phase (day 4 to day 7) with 10 μM KY02111

| SMILES | intensity of GFP fluorescence relative to control culture (KY02111 only, assigned to one) [1] | intensity of GFP fluorescence relative to control culture (KY02111 only, assigned to one) [2] | intensity of GFP fluorescence relative to control culture (KY02111 only, assigned to one) [3] | intensity of GFP fluorescence relative to control culture (KY02111 only, assigned to one) [4] | intensity of GFP fluorescence relative to control culture (KY02111 only, assigned to one) [5] | intensity of GFP fluorescence relative to control culture (KY02111 only, assigned to one) [6] | intensity of GFP fluorescence relative to control culture (KY02111 only, assigned to one) [7] | intensity of GFP fluorescence relative to control culture (KY02111 only, assigned to one) [8] | increase of cardiac differentiation (3 to 10 μM in early phase, FIG. 1b) | cardiac differentiation (screening conclusion) (under appropriate conditions, Table 1) | increase of cardiac differentiation (1 to 3 μM in late phase, FIG. 1e) |
| --- | --- | --- | --- | --- | --- | --- | --- | --- | --- | --- | --- |
| c1cc(-c2cnn3cc(-c4ccc(OCCN5CCCCC5)cc4)cnc23)ccn1 [Dorsomorphin] | 0.13 | 0.96 | 0.03 | 1.67 | 0 | 1.22 | 0 | 0.89 |  |  |  |
| Cc1ccc(-n2nc(C(C)(C)C)cc2NC(=O)Nc2ccc(OCCN3CCOCC3)c3ccccc23)cc1 [BIRB796] | 1.2 | 1.05 | 0.9 | 0.81 | 0.95 | 0.55 | 0.08 | 0.29 |  |  |  |
| CC(C)(O)/C=C/C(=O)[C@](C)(O)[C@H]1[C@H](O)C[C@@]2(C)[C@@H]3CC=C4[C@@H](C=C(O)C(=O)C4(C)C)[C@]3(C)C(=O)C[C@]12C [Cucurbitaonl] | 0.11 | 1.62 | 0 | 0 | 0 | 0 | 0 | 0 |  |  |  |
| CC(=O)O[C@@]12C[C@@H](C)[C@@]3(O)[C@@H](C=C(CO)C[C@]4(O)C(=O)C(C)=C[C@@H]34)[C@@H]1C2(C)C [Prostratin] | 0.79 | 0.72 | 2.31 | 0.3 | 5.42 | 0.01 | 6.88 | 0 | three- to eight-fold | promoted |  |
| COc1ccc2c(c1)c(C1=C(c3c[nH]c4ccccc34)C(=O)NC1=O)cn2CCCN(C)C [Go6983] | 1.1 | 1.12 | 0.98 | 0.62 | 2.31 | 0.45 | 2.12 | 0.13 |  |  |  |
| OCCn1cc(-c2cnc3nnn(Cc4ccc5ncccc5c4)c3n2)cn1 [PF042I7903] | 1.02 | 1.09 | 0.99 | 1.3 | 0.91 | 0.82 | 0.62 | 0.78 |  |  |  |
| Cc1c[nH]c(/C=C2\C(=O)Nc3ccccc32)c1CCC(=O)O [SU5402] | 0.09 | 0.89 | 0 | 1 | 0 | 0.46 | 0 | 0.06 |  |  |  |
| COc1ccc(-c2ccc3c(N4CCOCC4)nc(N4C[C@@H](C)O[C@@H](C)C4)nc3n2)cc1CO [K00063794] | 0.18 | 0.95 | 0.01 | 0.85 | 0 | 0.21 | 0 | 0 |  |  |  |
| Cc1cc(Nc2ncc3c(n2)N(C)C(=O)N(c2cc(NC(=O)c4cccc(C(F)(F)F)c4)ccc2C)C3)n(C)n1 [SC-1] | 0.16 | 0.14 | 0 | 0 | 0 | 0 | 0 | 0 |  |  |  |
| CN(C)S(=O)(=O)c1ccc2c(c1)/C(=C/c1cc3c([nH]1)CCCC3)C(=O)N2 [SU6656] |  |  |  |  |  |  |  |  |  |  | two- to five-fold |
| CNC(=O)c1ccccc1Sc1ccc2c(/C=C/c3ccccn3)n[nH]c2c1 [Axitinib] | 0.64 | 0.95 | 0.02 | 0.25 | 0 | 0.05 | 0 | 0 |  |  |  |
| O=c1[nH]c2ccccc2n1C1CCN(Cc2ccc(-c3nc4cc5[nH]cnc5cc4nc3-c3ccccc3)cc2)CC1 [Akt inhibitor 8] | 1.2 | 1.11 | 0.96 | 1.57 | 0.11 | 1.33 | 0 | 1.11 |  |  |  |
| CC(C)(C)c1ccc(S(=O)(=O)Nc2ccc(-n3ccnc3)cc2)cc1 [ISCK03] | 0.08 | 1.23 | 0 | 0.8 | 0 | 0.79 | 0 | 0.88 |  |  |  |
